According to US20210038554A1, “DIETARY BUTYRATE” (SOCIETE DES PRODUITS NESTLE S.A., priority 2018, published 2021):

What was measured:
[1] = target: T1, porcine pancreatic lipase (from pancreatin) (Sus scrofa, UniProt P00591); test: In vitro digestion, simulated intestinal fluid (SIF) model, pH-stat; assay type: in vitro ADME; conditions: SIF alone; 200 mg fat emulsion, pH 6.8, 37° C.
T1 construct: pancreatin (Porcine, USP×8, P7585); purchased Sigma-Aldrich P7585; host or cells: porcine pancreas extract (pancreatin)
T1 sequence (P00591 1-450): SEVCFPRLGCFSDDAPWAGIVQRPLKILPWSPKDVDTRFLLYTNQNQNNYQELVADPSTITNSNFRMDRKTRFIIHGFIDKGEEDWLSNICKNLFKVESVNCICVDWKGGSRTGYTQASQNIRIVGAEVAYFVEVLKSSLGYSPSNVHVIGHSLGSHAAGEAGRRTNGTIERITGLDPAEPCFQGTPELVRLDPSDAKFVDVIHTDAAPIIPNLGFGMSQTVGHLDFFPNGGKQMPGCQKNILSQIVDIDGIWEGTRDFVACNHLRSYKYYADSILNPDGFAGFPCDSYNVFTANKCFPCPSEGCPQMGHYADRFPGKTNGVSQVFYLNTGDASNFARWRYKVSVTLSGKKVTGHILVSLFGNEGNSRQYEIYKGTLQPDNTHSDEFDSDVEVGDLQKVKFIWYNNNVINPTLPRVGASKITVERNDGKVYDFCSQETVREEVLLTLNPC
T1 sequence (P02703 23-112 partner): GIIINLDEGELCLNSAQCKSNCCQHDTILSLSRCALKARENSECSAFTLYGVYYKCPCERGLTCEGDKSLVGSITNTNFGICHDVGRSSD

[2] = test system: rabbit gastric lipase (RGL) followed by porcine pancreatic lipase (PPL); test: In vitro sequential digestion SGF followed by SIF, pH-stat; assay type: in vitro ADME

initial rate of lipolysis [1]: 223 ± 59 µmol/min
initial lipolysis rate in SIF after SGF ([2]; SGF-SIF sequential digestion, 200 mg fat emulsion): 44.1 ± 8.8 µmol/min
extent of hydrolysis in the stomach (gastric lipolysis) ([2]; in words): extensive hydrolysis in the stomach
lipolysis by gastric lipase ([2]; indicated by decreased total fatty acid release in SIF after RGL in SGF): ~60%
SMILES: CCCC(=O)OCC(COC(=O)CCC)OC(=O)CCC [tributyrin]
